Source: US12692221B2 (priority 2024, dated 2026)

Assays:
COX2(h) = target: T1, COX2(h) (Homo sapiens, UniProt P35354); test: Enzyme assay COX2(h), arachidonic acid + ADHP, fluorimetry; format: biochemical
T1 construct: host or cells: Sf9 cells
T1 sequence (P35354 18-604): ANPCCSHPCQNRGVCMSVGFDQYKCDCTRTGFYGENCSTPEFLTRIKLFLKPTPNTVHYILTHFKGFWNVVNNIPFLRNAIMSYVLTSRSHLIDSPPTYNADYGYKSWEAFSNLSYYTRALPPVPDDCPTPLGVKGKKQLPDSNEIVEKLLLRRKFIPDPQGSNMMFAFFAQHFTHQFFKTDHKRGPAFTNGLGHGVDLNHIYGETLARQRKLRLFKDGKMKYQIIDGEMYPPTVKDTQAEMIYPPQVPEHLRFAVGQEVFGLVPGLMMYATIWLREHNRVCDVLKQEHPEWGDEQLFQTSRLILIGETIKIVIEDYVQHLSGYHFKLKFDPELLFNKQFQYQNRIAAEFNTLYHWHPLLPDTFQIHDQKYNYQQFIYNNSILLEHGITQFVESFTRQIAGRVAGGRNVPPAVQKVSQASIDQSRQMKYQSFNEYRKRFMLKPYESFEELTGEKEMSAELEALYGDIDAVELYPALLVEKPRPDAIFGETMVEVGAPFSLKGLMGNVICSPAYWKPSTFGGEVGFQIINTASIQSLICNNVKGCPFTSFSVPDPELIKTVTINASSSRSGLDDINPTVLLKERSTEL
Experimental: Methods—Enzyme and Uptake Assays: In vitro enzyme and uptake assays were conducted by Eurofins Discovery using human recombinant enzymes expressed in various mammalian and insect cell lines. Enzymatic activity was measured using appropriate substrates or tracers under conditions optimized for each target, as detailed in Table 7. Reactions were incubated at room temperature for a defined duration and terminated according to established protocols. The measured components (either enzymatic products or remaining substrate) were quantified using fluorimetry, photometry, scintillation counting, or LANCE technology, depending on the assay. Assay-specific parameters, including substrate identity, cell line source, incubation time, and detection method, are provided in Table 7.
All measurements were performed in technical replicates to ensure reproducibility and data quality.
Results were expressed both as a percentage of control-specific activity and as percent inhibition of control-specific activity. Percent activity was calculated as (measured specific activity/control specific activity)×100, and percent inhibition as 100−[(measured specific activity/control specific activity)×100], based on values obtained in the presence of test compounds. IC50 and EC50 values, along with Hill coefficients (nH), were determined by nonlinear regression analysis of inhibition or concentration-response curves generated from mean replicate values. Hill curve fitting was performed as previously described using software developed at Cerep and validated against SigmaPlot® 4.0 for Windows® (© 1997 by SPSS Inc.).

D1 (h) = target: T2, D1 (h) (Homo sapiens, UniProt P21728); test: Radioligand binding D1 (h) (antagonist radioligand), [^3H]SCH 23390, CHO cells
T2 construct: expressed in transfected cells; host or cells: CHO cells
Experimental: (§1) Methods—Binding Assays: In vitro binding assays were performed using human recombinant receptors expressed in mammalian cell lines. Receptors were expressed in either HEK-293 or CHO cells depending on the target, and assay conditions (radioligand, concentration, nonspecific competitor, temperature, and incubation time) were optimized for each receptor. All assays were conducted in triplicate, and specific binding was quantified by scintillation counting as the detection method for each listed assay.
(§2) Specific binding was expressed as a percentage of control-specific binding, and percent inhibition was calculated using the formula in Ex. 8 above. Half-maximal inhibitory concentrations (IC50) were determined by non-linear regression analysis of the inhibition curves using the Hill equation (see Ex. 8). Inhibition constants (Ki) were calculated using the Cheng-Prusoff equation (see Ex. 8). KD values used in these calculations had been previously established for each receptor under the assay conditions (see Table 6). Data analysis was performed using software developed at Cerep and validated against SigmaPlot 4.0 for Windows.

alpha1D (h) = target: T3, alpha1D (h) (Homo sapiens, UniProt P25100); test: Radioligand binding alpha1D (h) (antagonist radioligand), [^3H]prazosin, CHO cells
T3 construct: expressed in transfected cells; host or cells: CHO cells
T3 sequence (P25100 1-572): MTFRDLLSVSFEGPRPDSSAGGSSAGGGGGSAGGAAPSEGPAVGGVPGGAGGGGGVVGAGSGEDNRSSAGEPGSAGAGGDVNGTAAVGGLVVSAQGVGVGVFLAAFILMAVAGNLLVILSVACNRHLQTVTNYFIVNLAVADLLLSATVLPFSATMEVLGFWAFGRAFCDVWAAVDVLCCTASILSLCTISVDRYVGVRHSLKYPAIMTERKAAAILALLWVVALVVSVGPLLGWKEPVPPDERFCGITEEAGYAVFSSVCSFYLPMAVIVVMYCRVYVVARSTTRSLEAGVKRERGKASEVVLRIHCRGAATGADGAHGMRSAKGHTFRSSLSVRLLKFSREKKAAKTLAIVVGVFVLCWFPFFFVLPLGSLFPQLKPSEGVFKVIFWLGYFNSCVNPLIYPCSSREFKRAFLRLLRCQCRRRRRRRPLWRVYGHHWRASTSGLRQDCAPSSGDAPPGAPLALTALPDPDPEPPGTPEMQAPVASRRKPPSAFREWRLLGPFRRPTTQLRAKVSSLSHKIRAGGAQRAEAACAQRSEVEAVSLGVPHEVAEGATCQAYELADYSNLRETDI
Experimental: as §1, §2

D2S (h) = target: T4, D2S (h) (Homo sapiens, UniProt P14416); test: Radioligand binding D2S (h) (agonist radioligand), [^3H]7-OH-DPAT, HEK-293 cells
T4 construct: expressed in transfected cells; host or cells: HEK-293 cells
Experimental: as §1, §2

MDR1 = test: MDR1-MDCKII bidirectional permeability assay; format: in vitro ADME, Canine; conditions: dog; for recovery at 60 min / recovery at 40 min: MDCK-MDR1, pH 7.4; for recovery at 60 min / Papp A→B at 60 min: apical-to-basolateral; for recovery at 60 min: read-out: A-B Percent Recovery; for recovery at 40 min / Papp B→A at 40 min: basolateral-to-apical; for recovery at 40 min: read-out: B-A Percent Recovery; for Papp A→B at 60 min / Papp B→A at 40 min: MDCK-MDR1, HBSS pH 7.4, 37° C.
Experimental: Methods: In vitro permeability studies were performed using confluent monolayers of MDR1-transfected Madin-Darby Canine Kidney (MDR1-MDCKII) cells cultured under standard conditions. Cells were seeded onto permeable supports and maintained until they formed tight monolayers suitable for bidirectional transport studies. The assay was conducted at 37° C. using Hanks' balanced salt solution (HBSS) adjusted to pH 7.4 on both the apical and basolateral sides. For apical-to-basolateral (A-B) permeability, samples were collected at 0 and 60 minutes, whereas for basolateral-to-apical (B-A) permeability, samples were collected at 0 and 40 minutes. The concentration of each compound in the donor and receiver chambers was determined by HPLC-MS/MS, and all results were expressed in terms of peak area.
The apparent permeability coefficient (Papp) for each compound was calculated using the formula:
[formula] where VR was the volume of the receiver chamber, CR,end was the concentration of the compound in the receiver chamber at the final time point, At was the incubation time, and A was the surface area of the cell monolayer. The midpoint donor concentration (CD,mid) was calculated as the average of the donor concentrations at time 0 and the end time point, while CR,mid was calculated as one-half of CaR,end.
Compound recovery was also evaluated using the following formula:
[formula] where VD and VR were the volumes of the donor and receiver chambers, respectively, CD,end and CR,end were the compound concentrations at the final time point in their respective compartments, and CD0 was the initial concentration in the donor chamber. Monolayer integrity was assessed following the permeability assay using fluorescein as a paracellular marker compound. Fluorescein was added to the apical chamber and sampled in the basolateral chamber after incubation. […] Only data from wells that met this integrity threshold were included in the final analysis.

T2 sequence (P21728 whole entry): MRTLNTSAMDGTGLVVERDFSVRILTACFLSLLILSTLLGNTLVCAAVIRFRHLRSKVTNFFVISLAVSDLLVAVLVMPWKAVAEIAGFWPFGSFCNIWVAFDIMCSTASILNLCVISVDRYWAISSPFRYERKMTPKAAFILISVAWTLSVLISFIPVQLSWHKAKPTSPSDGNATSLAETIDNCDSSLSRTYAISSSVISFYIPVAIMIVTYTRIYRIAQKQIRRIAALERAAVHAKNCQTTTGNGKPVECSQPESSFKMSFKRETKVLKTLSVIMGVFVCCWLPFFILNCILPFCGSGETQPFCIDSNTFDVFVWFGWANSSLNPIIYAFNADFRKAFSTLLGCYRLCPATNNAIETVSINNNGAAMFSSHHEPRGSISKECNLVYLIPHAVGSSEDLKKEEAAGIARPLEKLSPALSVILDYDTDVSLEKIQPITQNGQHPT
T4 sequence (P14416 1-414 isoform P14416-2): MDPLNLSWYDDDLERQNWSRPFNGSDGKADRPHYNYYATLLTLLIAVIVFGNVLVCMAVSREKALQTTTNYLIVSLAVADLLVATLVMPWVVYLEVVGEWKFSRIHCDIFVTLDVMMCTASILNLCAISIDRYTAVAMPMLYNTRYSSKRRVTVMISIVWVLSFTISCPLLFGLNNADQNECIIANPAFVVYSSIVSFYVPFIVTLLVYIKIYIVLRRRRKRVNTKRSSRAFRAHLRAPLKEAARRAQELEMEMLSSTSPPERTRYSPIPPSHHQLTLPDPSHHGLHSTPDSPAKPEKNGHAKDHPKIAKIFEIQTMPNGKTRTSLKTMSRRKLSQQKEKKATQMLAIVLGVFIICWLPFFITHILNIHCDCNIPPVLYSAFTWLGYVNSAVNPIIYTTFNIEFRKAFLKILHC

| SMILES | Mean Percent Inhibition of Control Specific Binding (COX2(h)) [%] | Mean Percent Inhibition of Control Specific Binding (D1 (h)) [%] | Mean Percent Inhibition of Control Specific Binding (alpha1D (h)) [%] | Mean Percent Inhibition of Control Specific Binding (D2S (h)) [%] | recovery at 60 min (MDR1) [%] | recovery at 40 min (MDR1) [%] | Papp A→B at 60 min (MDR1) [nm/s] | Papp B→A at 40 min (MDR1) [nm/s] |
| --- | --- | --- | --- | --- | --- | --- | --- | --- |
| COCc1cc(CCN)c(O)cc1CC(C)C [2CiBu-2OH-5MM, 2-(2-aminoethyl)-5-isobutyl-4-(methoxymethyl)phenol] | 10.2 | 4.0 | 11.8 | 46.6 | – | – | – | – |
| COCCc1cc(CCN)c(OC)cc1Br [Compound 2CB-5ME, reference compound] | −10.4 | 28.1 | 10.0 | 83.0 | 75 | 79 | 329 | 138 |
| COCc1cc(CCN)c(OC)cc1Br [Compound 2CB-5MM, 2-(4-bromo-2-methoxy-5-(methoxymethyl)phenyl)ethan-1-amine] | −8.0 | 21.1 | 9.5 | 89.4 | 78 | 83 | 299 | 145 |
| COCc1cc(CCN)c(OC)cc1CC(C)C [Compound 2CiBu-5MM, 2-[4-isobutyl-2-methoxy-5-(methoxymethyl)phenyl]ethanamine] | −7.0 | −1.4 | 0.5 | 12.9 | 76 | 79 | 248 | 133 |
